Results taken from patent publication US20230295200A1 (REGENTS OF THE UNIVERSITY OF MICHIGAN, priority 2022, published 2023).
pKi: −log10 of the molar value.

Molecular target: T1, STAT6 protein (Homo sapiens, UniProt P42226)
T1 sequence (P42226 1-847): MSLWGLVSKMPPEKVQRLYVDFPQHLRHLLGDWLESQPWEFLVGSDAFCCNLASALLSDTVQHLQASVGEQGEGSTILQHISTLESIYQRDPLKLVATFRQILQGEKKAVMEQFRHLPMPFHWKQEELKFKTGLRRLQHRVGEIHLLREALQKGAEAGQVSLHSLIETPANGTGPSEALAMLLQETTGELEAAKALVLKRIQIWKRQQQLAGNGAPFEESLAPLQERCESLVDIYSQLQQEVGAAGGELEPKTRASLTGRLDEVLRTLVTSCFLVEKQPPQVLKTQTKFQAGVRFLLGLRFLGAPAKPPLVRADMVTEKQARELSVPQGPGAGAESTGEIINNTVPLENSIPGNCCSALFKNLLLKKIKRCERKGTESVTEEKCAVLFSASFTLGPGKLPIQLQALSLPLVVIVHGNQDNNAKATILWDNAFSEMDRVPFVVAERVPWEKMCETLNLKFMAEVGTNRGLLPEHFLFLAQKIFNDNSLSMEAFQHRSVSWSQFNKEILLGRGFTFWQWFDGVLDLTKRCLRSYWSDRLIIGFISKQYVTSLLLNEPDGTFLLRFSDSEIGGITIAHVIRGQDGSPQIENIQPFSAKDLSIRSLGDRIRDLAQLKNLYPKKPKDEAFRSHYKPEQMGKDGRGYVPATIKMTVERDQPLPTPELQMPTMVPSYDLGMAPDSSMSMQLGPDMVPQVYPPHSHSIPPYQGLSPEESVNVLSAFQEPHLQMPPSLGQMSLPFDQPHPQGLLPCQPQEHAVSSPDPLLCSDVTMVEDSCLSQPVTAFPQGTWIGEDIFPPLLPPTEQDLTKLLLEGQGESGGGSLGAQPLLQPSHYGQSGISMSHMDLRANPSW
Assay: Fluorescence polarization (FP) binding assay, STAT6
Settings: FP competition, 5 nM fluorescein-labeled tracer, 200 nM protein, PBS pH7.4; read-out: Binding STAT6
Experimental: Evaluation of the activity of the inhibitors may be accomplished by fluorescence polarization (FP) experiments. A representative general protocol is the following:
Fluorescence polarization (FP) experiments are performed in black round-bottom plates using the CLARIOstar microplate reader. To each well, fluorescein-labeled tracer and STAT5 or STAT6 protein are added in assay buffer. […] The inhibition constants are determined as the concentration of the STAT5 or STAT6 at which 50% of the ligand is bound.
Fluorescence polarization (FP) experiments were performed in 96-well, black round-bottom plates (Microfluor 2, Fisher Scientific) using the CLARIOstar microplate reader (BMG Labtech). To each well, 5 nM of fluoresceinlabeled tracer and 200 nM of STAT5 and/or STAT6 protein were added to a final volume of 100 μl in the assay buffer (PBS pH7.4+0.01% BGG+0.01% Tween-20, 2 mM DTT). The plate was mixed on a shaker for 15 m and incubated at room temperature for 1 h to reach equilibrium. […] All experimental data were analyzed using Prism 8.0 software (GraphPad Software), and the inhibition constants were determined by nonlinear curve fitting as the concentration of the STAT5 and/or STAT6 at which 50% of the ligand is bound.

pKi | Structure (SMILES)
5.00 to 6.00 | CC(=O)N1CC[C@H]2CC[C@@H](C(=O)N(c3ccccc3)c3ccc(Br)cc3)N2C(=O)[C@@H](NC(=O)c2cc3cc(C(F)(F)P(=O)(O)O)ccc3[nH]2)C1 [Compound 370, ((2-(((5S,8S,10aR)-3-acetyl-8-((4-bromophenyl)(phenyl)carbamoyl)-6-oxodecahydropyrrolo[1,2-a][1,5]diazocin-5-yl)carbamoyl)-1H-indol-5-yl)difluoromethyl)phosphonic acid]
6.00 to 7.00 | CCOC(=O)CO[C@H]1C[C@@H](C(=O)N(CCC(=O)O)c2ccc(Br)cc2)N(C(=O)[C@@H](NC(=O)c2cc3cc(C(F)(F)P(=O)(O)O)ccc3s2)C(C)(C)C)C1 [Compound 47, 3-((2S,4S)-N-(4-bromophenyl)-1-((S)-2-(5-(difluoro(phosphono)methyl)benzo [b]thiophene-2-carboxamido)-3,3-dimethylbutanoyl)-4-(2-ethoxy-2-oxoethoxy)pyrrolidine-2-carboxamido)propanoic acid]
< 5.00 | CC(=O)N1CC[C@H]2CC[C@@H](C(=O)N3CCC(C)(c4ccccc4)C3)N2C(=O)[C@@H](NC(=O)c2cc3cc(C(F)(F)P(=O)(O)O)ccc3s2)C1 (stereo partly drawn) [Compound 393, ((2-(((5S,8S,10aR)-3-acetyl-8-(3-methyl-3-phenylpyrrolidine-1-carbonyl)-6-oxodecahydropyrrolo[1,2-a][1,5]diazocin-5-yl)carbamoyl)benzo[b]thiophen-5-yl)difluoromethyl)phosphonic acid]
5.00 to 6.00 | Cc1cc(C2CN(C(=O)[C@@H]3Cc4ccccc4CN3C(=O)[C@@H](NC(=O)c3cc4cc(C(F)(F)P(=O)(O)O)ccc4s3)C(C)(C)C)CCO2)ccc1F (stereo partly drawn) [Compound 241, (difluoro(2-(((2S)-1-((3S)-3-(2-(4-fluoro-3-methylphenyl)morpholine-4-carbonyl)-3,4-dihydroisoquinolin-2(1H)-yl)-3,3-dimethyl-1-oxobutan-2-yl)carbamoyl)benzo[b]thiophen-5-yl)methyl)phosphonic acid]
< 5.00 | O=C(N[C@H]1CCC[C@H]2CC[C@@H](C(=O)N3CCc4ccccc4C3)N2C1=O)c1cc2cc(C(F)(F)P(=O)(O)O)ccc2[nH]1 [Compound 363, (difluoro(2-(((3S,6S,9aS)-5-oxo-3-(1,2,3,4-tetrahydroisoquinoline-2-carbonyl)octahydro-1H-pyrrolo[1,2-a]azepin-6-yl)carbamoyl)-1H-indol-5-yl)methyl)phosphonic acid]
< 5.00 | CC(=O)N1CC[C@H]2CC[C@@H](C(=O)N3CCOCC3)N2C(=O)[C@@H](NC(=O)c2cc3cc(C(F)(F)P(=O)(O)O)ccc3[nH]2)C1 [Compound 367, ((2-(((5S,8S,10aR)-3-acetyl-8-(morpholine-4-carbonyl)-6-oxodecahydropyrrolo[1,2-a][1,5]diazocin-5-yl)carbamoyl)-1H-indol-5-yl)difluoromethyl)phosphonic acid]
< 5.00 | CN1CC[C@H]2CC[C@@H](C(=O)N3CCc4ccccc4C3)N2C(=O)[C@@H](NC(=O)c2cc3cc(C(F)(F)P(=O)(O)O)ccc3[nH]2)C1 [Compound 330, (difluoro(2-(((5S,8S,10aR)-3-methyl-6-oxo-8-(1,2,3,4-tetrahydroisoquinoline-2-carbonyl)decahydropyrrolo[1,2-a][1,5]diazocin-5-yl)carbamoyl)-1H-indol-5-yl)methyl)phosphonic acid]
6.00 to 7.00 | CNC(=O)CCN(C(=O)[C@@H]1C[C@H](OCC(=O)NC)CN1C(=O)[C@@H](NC(=O)c1cc2cc(C(F)(F)P(=O)(O)O)ccc2s1)C(C)(C)C)c1ccc(Br)cc1 [Compound 51, ((2-(((S)-1-((2S,4S)-2-((4-bromophenyl)(3-(methylamino)-3-oxopropyl)carbamoyl)-4-(2-(methylamino)-2-oxoethoxy)pyrrolidin-1-yl)-3,3-dimethyl-1-oxobutan-2-yl)carbamoyl)benzo[b]thiophen-5-yl)difluoromethyl)phosphonic acid]
5.00 to 6.00 | CC(=O)N1CC[C@H]2CC[C@@H](C(=O)NC3(c4ccccc4)CCOCC3)N2C(=O)[C@@H](NC(=O)c2cc3cc(C(F)(F)P(=O)(O)O)ccc3[nH]2)C1 [Compound 341, ((2-(((5S,8S,10aR)-3-acetyl-6-oxo-8-((4-phenyltetrahydro-2H-pyran-4-yl)carbamoyl)decahydropyrrolo[1,2-a][1,5]diazocin-5-yl)carbamoyl)-1H-indol-5-yl)difluoromethyl)phosphonic acid]
> 7.00 | NCCC[C@H](NC(=O)c1cc2cc(C(F)(F)P(=O)(O)O)ccc2s1)C(=O)N1CCC[C@H]1C(=O)N1CCO[C@H](c2ccccc2)C1 [Compound 280, ((2-(((S)-5-amino-1-oxo-1-((S)-2-((R)-2-phenylmorpholine-4-carbonyl)pyrrolidin-1-yl)pentan-2-yl)carbamoyl)benzo[b]thiophen-5-yl)difluoromethyl)phosphonic acid]
> 7.00 | CC(C)(C)[C@H](NC(=O)c1cc2cc(C(F)(F)P(=O)(O)O)ccc2s1)C(=O)N1Cc2ccccc2C[C@H]1C(=O)N1CCOC(c2cccnc2)C1 (stereo partly drawn) [Compound 217, ((2-(((2S)-3,3-dimethyl-1-oxo-1-((3S)-3-(2-(pyridin-3-yl)morpholine-4-carbonyl)-3,4-dihydroisoquinolin-2(1H)-yl)butan-2-yl)carbamoyl)benzo[b]thiophen-5-yl)difluoromethyl)phosphonic acid]
< 5.00 | CC(=O)N1CC[C@H]2CC[C@@H](C(=O)N3CCCc4ccccc4C3)N2C(=O)[C@@H](NC(=O)c2cc3cc(C(F)(F)P(=O)(O)O)ccc3[nH]2)C1 [Compound 369, ((2-(((5S,8S,10aR)-3-acetyl-6-oxo-8-(2,3,4,5-tetrahydro-1H-benzo[c]azepine-2-carbonyl)decahydropyrrolo[1,2-a][1,5]diazocin-5-yl)carbamoyl)-1H-indol-5-yl)difluoromethyl)phosphonic acid]
6.00 to 7.00 | Cc1cccc(C[C@H](NC(=O)c2cc3cc(C(F)(F)P(=O)(O)O)ccc3s2)C(=O)N2CCC[C@H]2C(=O)N2CCO[C@H](c3ccccc3)C2)c1 [Compound 283, (difluoro(2-(((S)-1-oxo-1-((S)-2-((R)-2-phenylmorpholine-4-carbonyl)pyrrolidin-1-yl)-3-(m-tolyl)propan-2-yl)carbamoyl)benzo[b]thiophen-5-yl)methyl)phosphonic acid]
> 7.00 | N#Cc1cccc(C[C@H](NC(=O)c2cc3cc(C(F)(F)P(=O)(O)O)ccc3s2)C(=O)N2CCC[C@H]2C(=O)N2CCO[C@H](c3ccccc3)C2)c1 [Compound 281, ((2-(((S)-3-(3-cyanophenyl)-1-oxo-1-((S)-2-((R)-2-phenylmorpholine-4-carbonyl)pyrrolidin-1-yl)propan-2-yl)carbamoyl)benzo[b]thiophen-5-yl)difluoromethyl)phosphonic acid]
6.00 to 7.00 | CCOC(=O)CO[C@@H]1C[C@@H](C(=O)N(CCC(=O)O)c2ccc(Br)cc2)N(C(=O)[C@@H](NC(=O)c2cc3cc(C(F)(F)P(=O)(O)O)ccc3s2)C(C)(C)C)C1 [Compound 48, 3-((2S,4R)-N-(4-bromophenyl)-1-((S)-2-(5-(difluoro(phosphono)methyl)benzo[b]thiophene-2-carboxamido)-3,3-dimethylbutanoyl)-4-(2-ethoxy-2-oxoethoxy)pyrrolidine-2-carboxamido)propanoic acid]
6.00 to 7.00 | CC(C)(C)[C@H](NC(=O)c1cc2cc(C(F)(F)P(=O)(O)O)ccc2s1)C(=O)N1Cc2ccccc2C[C@H]1C(=O)N1CCOC(C2CCCCC2)C1 (stereo partly drawn) [Compound 222, ((2-(((2S)-1-((3S)-3-(2-cyclohexylmorpholine-4-carbonyl)-3,4-dihydroisoquinolin-2(1H)-yl)-3,3-dimethyl-1-oxobutan-2-yl)carbamoyl)benzo[b]thiophen-5-yl)difluoromethyl)phosphonic acid]
6.00 to 7.00 | CC(C)(C)[C@H](NC(=O)c1cc2cc(C(F)(F)P(=O)(O)O)ccc2s1)C(=O)N1Cc2ccccc2C[C@H]1C(=O)N1CCOC(c2ccc(Cl)cc2)C1 (stereo partly drawn) [Compound 234, ((2-(((2S)-1-((3S)-3-(2-(4-chlorophenyl)morpholine-4-carbonyl)-3,4-dihydroisoquinolin-2(1H)-yl)-3,3-dimethyl-1-oxobutan-2-yl)carbamoyl)benzo[b]thiophen-5-yl)difluoromethyl)phosphonic acid]
